In US20260158102A1, “CYCLIC PEPTIDE DERIVATIVE COMPOSITION FOR TREATING OR PREVENTING NEUROPATHIC PAIN AND/OR INFLAMMATORY PAIN” (DKS Co. Ltd., priority 2022, published 2026):

Tests used:
[1] = Measurement of blood glucose level in rat STZ-induced diabetes model; type: in vivo; conditions: mean ± SE
Description: (§1) Compound 9 (50 mg/mL) was diluted with water for injection to obtain a 1 mg/mL administration specimen. For the specimens to be administered at 0.1 mg/mL and 0.01 mg/mL, the specimen to be administered at 1 mg/mL was diluted stepwise with water for injection. Each administration specimen was divided into PP disposable tubes every day and stored in a storehouse (freezer: MDF-MU339H-PJ, PHC Corporation) under the condition of freezing (−30° C. to −20° C., measured value: −26.4 to −24.5° C.). Preparation was performed on the day before the start of administration.
(§2) Water for injection was added to and dissolved in Pregabalin taken out from the capsule to obtain 2 mg/mL. It was prepared before use.
(§3) • Animal species: rat (SPF) • Strain: Crl: CD (SD) • Date of animal acquisition, gender, age in weeks, number of animals acquired, and weight range after 1 day of acquisition • First and second courses: Apr. 6, 2022, male, 7 weeks old, 35 animals, 217 to 237 g • Third and fourth courses: Apr. 13, 2022, male, 7 weeks old, 35 animals, 216 to 235 g • Source: […].
(§4) • Dose volume: calculated at 2 mL/kg based on the body weight on the day of administration. • Number of times of administration: once • Day of administration: 7 days before the day of starting administration of the test substance.
(§5) • Dose volume: calculated at 1 mL/kg based on the body weight on the day of administration. • Number of times of administration: 9 times • Interval of administration: once every 3 days (evaluation was performed on the day after administration) • Day of starting administration: day 8 of STZ administration (day of STZ administration is counted as day 1).
(§6) • Dose volume: calculated at 10 mL/kg based on the body weight on the day of administration. • Number of times of administration: Administration was performed once on the day of evaluation of neuropathic pain, twice in total, and on the other days of administration, a vehicle for a control substance (water for injection) was orally administered.
On days 7 and 35 of STZ administration, about 50 μL of blood was collected from the tail vein using a winged injection needle (Terumo Corporation) equipped with a heparinized capillary (DRUMMOND […]).
The blood obtained above was centrifuged [centrifugal conditions: 4° C., 3,000 rpm (×2,150 g), 15 min] with a centrifuge (CF 9RX, Hitachi Koki Co., Ltd.) to obtain plasma. Blood glucose levels of a part of plasma obtained by blood collection on day 7 and day 35 after STZ administration were measured by hexokinase G-6 PDH method (L-type Wako Glu2, FUJIFILM Wako Pure Chemical Corporation) using a biochemical automatic analyzer (AU480, Beckman Coulter, Inc.). […] The plasma after the measurement was discarded.
The mean and standard error of each group were calculated for the 50% withdrawal threshold, body weight, and blood glucose level.
The body weight was an integer.
No significant difference test of body weight and blood glucose levels was performed.

[2] = Observation of general condition in rat STZ-induced diabetes model; type: in vivo; conditions: 20 mg/kg oral, number of animals, 10 per group
Description: as §1, §2, §3, §4, §5, §6
• Observation of general condition • Observation was performed once a day.

In the case of `CC(C)C[C@H](CN)CC(=O)O` [Pregabalin, reference compound], the “Blood glucose level, Glu” value ([1]; 20 mg/kg oral group, day 7 of STZ administration (before start of dosing)) is reported as 575.8 ± 20.0 mg/dL, the “Blood glucose level, Glu” value ([1]; 20 mg/kg oral, day 35 of STZ administration) is reported as 567.4 ± 22.5 mg/dL and the general condition ([2]; day 1 of STZ administration) is reported as 10. It also gave a general condition ([2]; day 2 of STZ administration) of 10, a general condition ([2]; day 3 of STZ administration) of 10 and a general condition ([2]; day 4 of STZ administration) of 10. For the same molecule, the general condition ([2]; day 5 of STZ administration) was 10, the general condition ([2]; day 6 of STZ administration) was 10 and the general condition ([2]; day 7 of STZ administration) was 10. The general condition ([2]; day 8 of STZ administration) was 10, the general condition ([2]; day 9 of STZ administration) was 10 and the general condition ([2]; day 10 of STZ administration) was 10. It also gave a general condition ([2]; day 11 of STZ administration) of 10, a general condition ([2]; day 12 of STZ administration) of 10 and a general condition ([2]; day 13 of STZ administration) of 10. It also gave a general condition ([2]; day 14 of STZ administration) of 10, a general condition ([2]; day 15 of STZ administration) of 10 and a general condition ([2]; day 16 of STZ administration) of 10. For the same molecule, the general condition ([2]; day 17 of STZ administration) was 10, the general condition ([2]; day 18 of STZ administration) was 10 and the general condition ([2]; day 19 of STZ administration) was 10. It also gave a general condition ([2]; day 20 of STZ administration) of 10, a general condition ([2]; day 21 of STZ administration) of 10 and a general condition ([2]; day 22 of STZ administration) of 10. The general condition ([2]; day 23 of STZ administration) was 10, the general condition ([2]; day 24 of STZ administration) was 10 and the general condition ([2]; day 25 of STZ administration) was 10. For the same molecule, the general condition ([2]; day 26 of STZ administration) was 10, the general condition ([2]; day 27 of STZ administration) was 10 and the general condition ([2]; day 28 of STZ administration) was 10. The general condition ([2]; day 29 of STZ administration) was 10, the general condition ([2]; day 30 of STZ administration) was 10 and the general condition ([2]; day 31 of STZ administration) was 10. For the same molecule, the general condition ([2]; day 32 of STZ administration) was 10, the general condition ([2]; day 33 of STZ administration) was 10 and the general condition ([2]; day 34 of STZ administration) was 10. For the same molecule, the general condition ([2]; day 35 of STZ administration) was 10.
